Where two headings read alike, the source gives them in different places.
Experiment: Pharmacokinetics in dogs (plasma concentration by HPLC)
Type: in vivo, dog (beagle)
Conditions: for AUC(0-inf): read-out: AUCO- (to infinite time); for concentration at 0.5 h / concentration at 1 h / concentration at 2 h / concentration at 4 h / concentration at 7 h / Cmax / AUC(0-t) at 4 h: one dog (Dog 1); for concentration at 0.5 h / concentration at 1 h / concentration at 2 h / concentration at 4 h / concentration at 7 h: heading: Plasma concentration; for AUC(0-t) at 4 h: read-out: AUC0-4
Method: Since dogs are used in toxicology studies of antiasthma compounds, this species is chosen for pharmacokinetic evaluations. Use of the dog permits the pharmacokinetic comparison of 2 or more compounds in the same test animal, an evaluation which could not be conveniently performed in a smaller species. For each test compound, normal dogs are given a dose of 2.0 mg/kg/day for 5 consecutive days. There is a washout period of 1 month between the study of each of the test compounds in the same four dogs. Each test compound is administered as a solution of 5 mg/ml in either 0.05 or 0.1N HCl which is dispensed into a gelatin capsule immediately prior to dosage.
Heparinized blood samples are obtained from each animal on the first, third and fifth day of dosage at 0.5, 1.0, 2.0, 4.0, 7.0, 12.0 and 24.0 hours after the dose. The samples are centrifuged immediately to obtain plasma which is frozen until analyzed.
Analysis of plasma is performed using High Performance Liquid Chromatography (HPLC). The analytical procedure is essentially identical for each compound. The internal standard used for N-[3-[2-(1H-imidazol-1-yl)ethoxy]phenyl]-4-(2-thienyl)2-pyrimidinamine is 2-chloro-11-(4-methyl-1-piperazinyl)dibenz[b,f][1,4]oxazepine succinate, while for 2-methyl-N^4 -[4-(4-pyridinyl)-2-pyrimidinyl]-1,4-benzenediamine dihydrochloride and N-[4-[2-(diethylamino)ethoxy]phenyl]-4-(4-pyridinyl)-2-pyrimidnamine dihydrochloride the internal standard is 7-ethoxy-coumarin. In a typical procedure, a 0.4 ml volume of acetonitrile containing internal standard is added a 0.2 ml volume of serum. The sample is mixed by vortexing and centrifuged. The clear protein free supernatent fluid is decanted into a clean tube and evaporated to dryness. The dry residue is dissolved in 0.2 ml of HPLC mobile phase and 50 ul of this solution injected. Peaks corresponding to the test compound being measured and to the internal standard compound are quantitated by their absorption of ultraviolet light at 280 nm. Each set of analytical samples is accompanied by the analysis of a group of standard dog plasma samples prepared to contain amounts of the compound being measured which encompasses the concentration range of the samples.
Four normal beagle dogs weighing between 9.2 and 10.2 Kg are used in the study.

[1] = dog, plasma, po, 2 mg/kg/day, Dog 1, day 1, 2 mg/kg/day PO
[2] = dog, plasma, po, 2 mg/kg/day, Dog 1, day 3, 2 mg/kg/day PO
[3] = dog, plasma, po, 2 mg/kg/day, Dog 1, day 5, 2 mg/kg/day PO
[4] = dog, plasma, po, 2 mg/kg/day, day 1, 2 mg/kg/day PO
[5] = dog, plasma, po, 2 mg/kg/day, day 3, 2 mg/kg/day PO
[6] = dog, plasma, po, 2 mg/kg/day, day 5, 2 mg/kg/day PO

**Q.** With `CCN(CC)CCOc1ccc(Nc2nccc(-c3ccncc3)n2)cc1.Cl.Cl` [Compound 3, N-[4-[2-(diethylamino)ethoxy]phenyl]-4-(4-pyridinyl)-2-pyrimidinamine dihydrochloride, reference compound] as the compound, how does the Tmax [1] read?
**A.** The Tmax was 1 h.

**Q.** And the half-life [1]?
**A.** The half-life was 1.77 h.

**Q.** What about the AUC(0-inf) [1] of the same compound?
**A.** The AUC(0-inf) was 374 ng·h/mL.

**Q.** What about the Tmax [2] of the same compound?
**A.** Its Tmax is 1 h.

**Q.** And the half-life [2]?
**A.** The half-life was 1.25 h.

**Q.** What about the AUC(0-inf) [2] of the same compound?
**A.** The AUC(0-inf) was 423 ng·h/mL.

**Q.** What about the Tmax [3] of the same compound?
**A.** The Tmax was 1 h.

**Q.** And the half-life [3]?
**A.** The half-life was 2.16 h.

**Q.** And the AUC(0-inf) [3]?
**A.** The AUC(0-inf) was 392 ng·h/mL.

**Q.** And the concentration at 0.5 h (dog, plasma, po, 2 mg/kg/day, day 1, 0.5 h, 2 mg/kg/day PO)?
**A.** The concentration at 0.5 h was 30 ng/mL.

**Q.** What about the concentration at 1 h (dog, plasma, po, 2 mg/kg/day, day 1, 1.0 h, 2 mg/kg/day PO) of the same compound?
**A.** The concentration at 1 h was 125 ng/mL.

**Q.** And the concentration at 2 h (dog, plasma, po, 2 mg/kg/day, day 1, 2.0 h, 2 mg/kg/day PO)?
**A.** The concentration at 2 h was 102 ng/mL.

**Q.** What about the concentration at 4 h (dog, plasma, po, 2 mg/kg/day, day 1, 4.0 h, 2 mg/kg/day PO) of the same compound?
**A.** Its concentration at 4 h is 40 ng/mL.

**Q.** And the concentration at 7 h (dog, plasma, po, 2 mg/kg/day, day 1, 7.0 h, 2 mg/kg/day PO)?
**A.** Its concentration at 7 h is under 30 ng/mL.

**Q.** What about the Cmax [4] of the same compound?
**A.** Its Cmax is 125 ng/mL.

**Q.** And the AUC(0-t) at 4 h [4]?
**A.** The AUC(0-t) at 4 h was 302 ng·h/mL.

**Q.** And the concentration at 0.5 h (dog, plasma, po, 2 mg/kg/day, day 3, 0.5 h, 2 mg/kg/day PO)?
**A.** The concentration at 0.5 h was 124 ng/mL.

**Q.** What about the concentration at 1 h (dog, plasma, po, 2 mg/kg/day, day 3, 1.0 h, 2 mg/kg/day PO) of the same compound?
**A.** The concentration at 1 h was 192 ng/mL.

**Q.** What about the concentration at 2 h (dog, plasma, po, 2 mg/kg/day, day 3, 2.0 h, 2 mg/kg/day PO) of the same compound?
**A.** Its concentration at 2 h is 81 ng/mL.

**Q.** And the concentration at 4 h (dog, plasma, po, 2 mg/kg/day, day 3, 4.0 h, 2 mg/kg/day PO)?
**A.** Its concentration at 4 h is 34 ng/mL.

**Q.** And the concentration at 7 h (dog, plasma, po, 2 mg/kg/day, day 3, 7.0 h, 2 mg/kg/day PO)?
**A.** Its concentration at 7 h is under 30 ng/mL.

**Q.** And the Cmax [5]?
**A.** Its Cmax is 192 ng/mL.

**Q.** And the AUC(0-t) at 4 h [5]?
**A.** Its AUC(0-t) at 4 h is 362 ng·h/mL.

**Q.** And the concentration at 0.5 h (dog, plasma, po, 2 mg/kg/day, day 5, 0.5 h, 2 mg/kg/day PO)?
**A.** The concentration at 0.5 h was under 30 ng/mL.

**Q.** And the concentration at 1 h (dog, plasma, po, 2 mg/kg/day, day 5, 1.0 h, 2 mg/kg/day PO)?
**A.** Its concentration at 1 h is 153 ng/mL.

**Q.** What about the concentration at 2 h (dog, plasma, po, 2 mg/kg/day, day 5, 2.0 h, 2 mg/kg/day PO) of the same compound?
**A.** Its concentration at 2 h is 82 ng/mL.

**Q.** What about the concentration at 4 h (dog, plasma, po, 2 mg/kg/day, day 5, 4.0 h, 2 mg/kg/day PO) of the same compound?
**A.** Its concentration at 4 h is 55 ng/mL.

**Q.** And the concentration at 7 h (dog, plasma, po, 2 mg/kg/day, day 5, 7.0 h, 2 mg/kg/day PO)?
**A.** Its concentration at 7 h is under 30 ng/mL.

**Q.** And the Cmax [6]?
**A.** The Cmax was 153 ng/mL.

**Q.** What about the AUC(0-t) at 4 h [6] of the same compound?
**A.** Its AUC(0-t) at 4 h is 293 ng·h/mL.

**Q.** And the k el (dog, plasma, po, 2 mg/kg/day, derived from mean of half-life values, read-out: elimination constant (converted))?
**A.** The k el was 0.000155 s⁻¹.

**Q.** And the “measurable concentrations in plasma (in words)” value (four dogs, 2 mg/kg/day PO)?
**A.** The value was “only one dog provided measurable concentrations of compound in the plasma”.

Source: patent US5162328A, “N-[3-[2-(1H-imidazol-1-yl)ethoxy]phenyl]-4-(2-thienyl)-2-pyrimidinamine and pharmacologically acceptable salts” (American Cyanamid Company, priority 1991, dated 1992)
